Source: patent US7601331B2, “NIR-sensitive nanoparticle” (National University of Singapore, priority 2004, dated 2009)

Assays:
[1] = Thermogravimetric analysis (TGA) of freeze-dried surface-modified particles; type: physicochemical; conditions: for Decomposition Temp.: TGA in helium, surfactant on NIR-sensitive nanoparticles; for Ave. Absorbed (amount of ligand adsorbed): TGA of freeze-dried particles
Procedure: Thermogravimetric analysis (TGA) was conducted in helium using a Perkin-Elmer series 7 Thermal Analysis system at a ramp rate of 4° C./min from 30° C. to 900° C.

[2] = Procedure: Anti-cancer drugs and other biomolecules can be loaded onto the NIR-sensitive nanoparticles by coating the particles with surfactants. […] The insolubility of MUA in water necessitated the chemisorption of MUA in absolute ethanol. NIR-sensitive nanoparticles (colloids) were separated from the aqueous reaction mixture by centrifugation, and dispersed in 100 mM MUA in absolute ethanol. The nanoparticles (colloids) were dispersed in these surfactant solutions for 3 days, an estimated time for chemisorption to reach equilibrium.

Decomposition Temp. [1] [°C] | Ave. Absorbed (amount of ligand adsorbed) [1] [nmol/mg] | solubility in water [2] | Structure (SMILES)
~200 | 0.10 ± 0.03 | insolubility | O=C(O)CCCCCCCCCCS [MUA, mercaptoundecanoic acid]
~150 | 0.14 ± 0.01 |  | O=C(O)CS [MAA, mercaptoacetic acid]
